Patent US6962931B2, “Self-emulsifying formulations of cholesteryl ester transfer protein inhibitors” (Pfizer Inc., priority 2001, dated 2005)

What was measured:
[1] = Microsolubility estimate by repeated addition of vehicle; format: physicochemical
Protocol: (§1) For CETP inhibitors where quantities were limited, an estimate of solubility was obtained by addition of vehicle to a known quantity of the compound and mixing in an ultrasonicator bath for 90 minutes, followed by overnight equilibration at ambient temperature. Addition of vehicle was repeated until a solution was achieved.
as §1, with “limited or the samples were amorphous solids,” for “limited,”, “achieved. From the total volume of vehicle added to solubilize the CETP inhibitor compound, the solubility value, or so-called microsolubility, was calculated by the equation: Weight of sample (mgA)/vehicle volume (mL)=Microsolubility (mgA/mL)” for “achieved.”

[2] = Extent of emulsification, droplet size by optical microscope; format: physicochemical
Protocol: The extent of emulsification was determined by mixing the preconcentrate and water in a ratio of 1:100 and 1:10 by gentle inversion (5×), visual inspection, and examination under an optical microscope, using a polarizing filter to check for the appearance of crystals. Droplet size determined by this approach is expressed as the upper limit for the average droplet size, since submicron droplets cannot be detected by this method.

Pharmacokinetics in dogs = format: in vivo, Male Beagle dogs; conditions: for Cmax / Tmax: male, Beagle, dog, plasma, po
Protocol: Male Beagle dogs (n=6) between the ages of 2-5 and weighing 6-12 kg were dosed with capsules followed by 50 mL of water. […] The dogs were either fasted or fed just prior to dosing with 14 g of dry dog food and 8 gm olive oil. The same set of dogs were used for all formulations, except where indicated. […]
Unless otherwise indicated, results are for the fasted state. Miglyol® softgels have a very low fasted exposure and thus a high food effect. The fasted exposure is higher than that for crystalline suspension, while the fed exposure using this high oil meal is the same. Thus Miglyol softgels provide a lower food effect than crystalline drug. At the same dose of 90 mgA, formulations such as A, O, and C that include surfactants and cosolvent have much higher fasted exposures and only a ca. 3× food effect. The fed exposures are also higher than for Miglyol® 812 softgels and crystalline drug. Poorer fasted exposure was obtained for Formulation WW, which contains a high level of ethyl lactate as a cosolvent.

[3] = Equilibrium solubility in excipients, vehicles and emulsion preconcentrates; format: physicochemical
Protocol: The solubility of CETP inhibitors in excipients and in formulations was determined by adding an excess of compound to the medium in question. The mixture was agitated by rotation over a period of days at ambient temperature until the concentration in solution had reached an equilibrium as judged by similar measurements for consecutive time points. Concentrations were measured by filtration of aliquots with a PTFE syringe filter and assay by HPLC as described in Example 11.
The solubility of crystalline CETP inhibitors in representative vehicles was determined by adding an excess of compound to the vehicle in question. The mixture was agitated by rotation over a period of days at ambient temperature until the concentration in solution had reached equilibrium as judged by similar measurements for consecutive time points. Concentrations were measured by filtration of aliquots with a PTFE syringe filter and assayed by HPLC.
The concentrations of CETP inhibitor in each vehicle were assayed at intervals by dilution of aliquots into acetonitrile and gradient HPLC analysis on a Water Symmetry C-8 column (3.9×150 mm, 5 micron) at 30° C. at a flow rate of 1 mL/min. […] The detection method was UV absorbance at 210 nm.

[4] = Emulsion from oil solution plus equal volume of water: particle size and stability; format: physicochemical
Protocol: An emulsion was prepared by combining 1 volume of oil solution with an equal volume of de-ionized water. […] The emulsion is then stirred continuously to maintain homogeneity.
An emulsion was prepared by combining 1 volume of oil solution with an equal volume of de-ionized water. This mixture was stirred for 10 minutes and then vortex mixed for 2 minutes. […] It was stirred continuously to maintain homogeneity.
An emulsion was prepared by combining combining 1 volume of oil solution with an equal volume of de-ionized water. This mixture was stirred for 10 minutes and then vortex mixed for 2 minutes. […] It was stirred continuously to maintain homogeneity.

[5] = Dynamic light scattering particle size analysis of emulsions; format: physicochemical
Protocol: Preliminary particle size analysis data has been obtained on selected formulations using a dynamic light scattering particle size analyzer (ZetaPals, Brookhaven Instruments, Inc.) for measurement of sub-micron particle distribution. The formulation solutions were diluted 1:100 in HPLC-grade water (previously filtered through a 0.22 μm syringe filter). The resulting mixture was gently inverted five times to create the emulsion. Each emulsion sample was then analyzed at a temperature of 37° C. Triplicate measurements were made at each time point (0, 30 min).

[6] = 90 mg, Fed, Miglyol 812/Triacetin/Cremophor RH40/Capmul MCM (20/30/20/30)
[7] = 90 mg, fasted, Miglyol 812/Triacetin/Cremophor RH40/Capmul MCM (20/30/20/30)
[8] = equilibrium, vehicle Miglyol 812
[9] = equilibrium, vehicle Miglyol 812/propylene carbonate/Cremophor EL (60/20/20)
[10] = 60 mg, fasted, Miglyol 812/Triacetin/Polysorbate 80/Capmul MCM (22/27/20/31)
[11] = preconcentrate Miglyol 812/Triacetin/Polysorbate 80/Capmul MCM 22/27/20/31 % v/v

For `CCC(CC)CC1(C(=O)Nc2ccccc2SC(=O)C(C)C)CCCCC1` [Compound B, Propanethioic acid, 2-methyl-, S-[2-[[[1-(2-ethylbutyl)cyclohexyl]carbonyl]amino]phenyl]ester], which Solubility ([1]; Capmul MCM, oil or lipid, thermodynamic from solid, read-out: Microsolubility) is on record?
The Solubility was under 100 mg/mL.

What about the Solubility ([1]; Crodamol GTCC, oil or lipid, thermodynamic from solid, read-out: Microsolubility) of the same compound?
Its Solubility is under 20 mg/mL.

What about the Solubility ([1]; Crodamol GTCC/Capmul MCM/Polysorbate 80 (40/40/20), oil or lipid, thermodynamic from solid, read-out: Microsolubility) of the same compound?
Its Solubility is under 100 mg/mL.

And the Solubility ([1]; Olive oil, oil or lipid, thermodynamic from solid, read-out: Microsolubility)?
The Solubility was under 100 mg/mL.

And the Solubility ([1]; PEG 400, organic solvent or mixture, thermodynamic from solid, read-out: Microsolubility)?
Its Solubility is under 100 mg/mL.

What about the Solubility ([1]; oil or lipid, thermodynamic from solid, read-out: Microsolubility) of the same compound?
The Solubility was under 100 mg/mL.

And the Solubility ([1]; preconcentrate Miglyol 812/Triacetin/Polysorbate 80/Capmul MCM 20/30/20/30 % v/v, amorphous solid)?
The Solubility was “≧100 mgA/mL”.

And the “Ave Droplet Size (1:100 dilution)” value ([2]; preconcentrate Miglyol 812/Triacetin/Polysorbate 80/Capmul MCM 20/30/20/30 % v/v)?
Its value is under 5 μ.

What does the source list for `CC[C@@H]1C[C@H](N(Cc2cc(C(F)(F)F)cc(C(F)(F)F)c2)C(C)=O)c2cc(C(F)(F)F)ccc2N1C(=O)OC(C)C` [Compound D, [2R,4S] 4-[acetyl-(3,5-bis-trifluoromethyl-benzyl)-amino]-2-ethyl-6-trifluoromethyl-3,4-dihydro-2H-quinoline-1-carboxylic acid isopropyl ester]?
AUG 0-tlast (Pharmacokinetics in dogs; Fed, 90 mg, Miglyol 812/Triacetin/Cremophor RH40/Capmul MCM (20/30/20/30), Tlast 24 hr): 4.84 ± 1.23 µg·h/mL; AUG 0-tlast (Pharmacokinetics in dogs; fasted, 90 mg, 100 mg/mL in Miglyol 812/Triacetin/Cremophor RH40/Capmul MCM (20/30/20/30), Tlast 24 hr): 3.45 ± 0.96 µg·h/mL; Cmax (Pharmacokinetics in dogs; [6]): 1.2 ± 0.41 µg/mL; Tmax (Pharmacokinetics in dogs; [6]): 1.5 h; Cmax (Pharmacokinetics in dogs; [7]): 0.86 ± 0.31 µg/mL; Tmax (Pharmacokinetics in dogs; [7]): 1.7 h; Solubility ([3]; equilibrium, vehicle Capmul MCM): 58 mgA/ml; Solubility ([3]; equilibrium, vehicle Cremophor EL): 18 mgA/ml; Solubility [3, 8]: 61 mgA/ml; Solubility ([3]; equilibrium, vehicle Miglyol 812/Cremophor EL 80/20): 51 mgA/ml; Solubility [3, 9]: 208 mgA/ml; Solubility ([3]; equilibrium, vehicle Olive oil): 13 mgA/ml; Solubility ([3]; equilibrium, vehicle Olive oil/Cremophor EL 80/20): 14 mgA/ml; Solubility ([3]; equilibrium, vehicle Triacetin): 239 mgA/ml; Solubility ([3]; preconcentrate Miglyol 812/Triacetin/Cremophor RH40/Capmul MCM 20/30/20/30 % v/v): 172 mgA/mL; chemical degradation or crystallization ([4]; Example 19 oil after storage for 8 days or emulsion after 24 hr): No chemical degradation based on HPLC analysis or crystallization based on microscopic examination was detected

What does the source list for `CC[C@@H]1C[C@H](N(Cc2cc(C(F)(F)F)cc(C(F)(F)F)c2)C(=O)OC)c2cc(C(F)(F)F)ccc2N1C(=O)OC(C)C` [Compound E, [2R,4S] 4-[(3,5-Bis-trifluoromethyl-benzyl)-methoxycarbonyl-amino]-2-ethyl-6-trifluoromethyl-3,4-dihydro-2H-quinoline-1-carboxylic acid isopropyl ester]?
AUG 0-tlast (Pharmacokinetics in dogs; fasted, 60 mg, 100 mg/mL in Miglyol 812/Triacetin/Polysorbate 80/Capmul MCM (22/27/20/31), Tlast 48 hr): 2.90 ± 0.67 µg·h/mL; Cmax (Pharmacokinetics in dogs; [10]): 0.2 ± 0.14 µg/mL; Tmax (Pharmacokinetics in dogs; [10]): 1.5 h; Solubility [3, 8]: 167 mgA/ml; Solubility [3, 9]: 394 mgA/ml; Solubility ([3]; equilibrium, vehicle Olive oil): 39 mgA/ml; Solubility [3, 11]: 308 mgA/mL; chemical degradation or crystallization ([4]; Example 15 oil or emulsion after storage for 24 hr, HPLC, microscopy): No chemical degradation based on HPLC analysis or crystallization based on microscopic examination was detected; average particle size of emulsion ([4]; Example 15 oil solution (Miglyol 812/propylene carbonate/Cremophor EL, 275 mg/g) plus equal volume water): less than 10 microns; Ave Droplet Size (1:100 dilution) [2, 11]: <2 μ; Mean Diam. ([5]; 30 min., 100 mg/mL in Miglyol 812/Triacetin/Polysorbate 80/Capmul MCM (22/27/20/31)): 175 nm; Mean Diam. ([5]; 30 min., 200 mg/mL in Miglyol 812/Triacetin/Polysorbate 80/Capmul MCM (22/27/20/31)): 251 ± 45 nm; Mean Diam. ([5]; Initial, 100 mg/mL in Miglyol 812/Triacetin/Polysorbate 80/Capmul MCM (22/27/20/31)): 181 nm; Mean Diam. ([5]; Initial, 200 mg/mL in Miglyol 812/Triacetin/Polysorbate 80/Capmul MCM (22/27/20/31)): 239 ± 17 nm
